A short description of series [1]: Dispersibility in water, mixture stirred violently. The settings on record: 5 mg added into 100 mL of water, stirring violently. It counts as physicochemical. Here is the method:
Oxidized coenzyme Q10 crystals (5 mg) or reduced coenzyme Q10 crystals (5 mg) as obtained in the Production Example 1 was added into 100 mL of water, and each mixture was then stirring violently. In the both mixtures, one part of fine particles adhered to the wall of vessel, and another part thereof formed lumps of particles floated on the water surface.

Series [2] in a line: Adhesion of particles to the wall of a glass sample bottle on shaking. The settings on record: 500 mg in a 10-mL glass sample bottle, shaken. The format is physicochemical. Here is the method: Fine particles as obtained in Example 4 (500 mg) was placed in a 10-mL glass sample bottle, and then shaken.
Reduced coenzyme Q10 crystals as obtained in Production Example 1 (500 mg) was placed in a 10-mL glass sample bottle, and then shaken in the same manner as Example 8.

With `COc1c(O)c(C)c(C/C=C(\C)CC/C=C(\C)CC/C=C(\C)CC/C=C(\C)CC/C=C(\C)CC/C=C(\C)CC/C=C(\C)CC/C=C(\C)CC/C=C(\C)CCC=C(C)C)c(O)c1OC` [reduced coenzyme Q10 crystals, reduced coenzyme Q10], the dispersibility in water entry in series [1] is “the particles were not dispersed easily”. Moreover, in series [2], the “adhesion to the wall of bottle” value is “most of the crystals were adhered to the wall”.
For the compound `COC1=C(OC)C(=O)C(C/C=C(\C)CC/C=C(\C)CC/C=C(\C)CC/C=C(\C)CC/C=C(\C)CC/C=C(\C)CC/C=C(\C)CC/C=C(\C)CC/C=C(\C)CCC=C(C)C)=C(C)C1=O` [Oxidized coenzyme Q10 crystals, Oxidized coenzyme Q10], in series [1], the dispersibility in water entry is recorded as “the particles were not dispersed easily”.

Source of the values: patent US20070053985A1, “Coenzyme Q10-containing fine particle with excellent dispersibility” (KANEKA CORPORATION, priority 2005, published 2007).
